Measured values reported in patent US9808496B2, “Use of a myrtle extract as an anti-biofilm agent against P. acnes” (PIERRE FABRE DERMO-COSMETIQUE, priority 2012, dated 2017).

How the values were obtained:
Assay type in all cases: cell-based, Propionibacterium acnes
[1] = test system: two erythromycin-resistant strains (ERY R); assay: Bactericidal activity of erythromycin on isolated bacteria; conditions: 1000 μg/ml
Description: (§1) The erythromycin concentration selected is 1000 μg/ml.

P. acnes R4 (eryR) = assay: Activity of the combination erythromycin/myrtle extract on P. acnes biofilm (24-well microplate); conditions: erythromycin 1000 μg/ml alone, 24 h contact on 48 h biofilm
Description: (§2) Myrtle extract is prepared according to example 2.
(§3) • Four Propionibacterium acnes strains were selected: Two Erythromycin-Resistant Strains (ERY R) • Propionibacterium acnes CIP 110371 • clinical isolate R4 Two Erythromycin-Sensitive Strains (ERY S) • Propionibacterium acnes CIP 53117T • clinical isolate B872 Protocol
(§4) A titrated suspension of P. acnes (about 10^6 CFU/ml), in minimal broth allowing no bacterial growth, was deposited in the wells of a 24-well microplate.
(§5) The microplates are placed under anaerobic conditions at 37±2° C. for 48 h, the time established for biofilm to form.
(§6) After 48 h, the supernatant of each well is discarded and then the wells are rinsed. Erythromycin and myrtle extract at various concentrations are added for a contact time of 24 h on the adhered cells (72 hours of adhesion in total).
as §1
(§7) After 72 h of adhesion: • planktonic cells are counted • adhered (sessile) cells are counted after rinsing the well and then scraping in tryptone salt
(§8) Controls were prepared in parallel (adhered+planktonic cells) • 72 h biofilm control (with the medium changed at 48 h) • myrtle control at various concentrations (added after 48 h/24 h of contact) • 1000 μg/ml erythromycin control (added at 48 h/24 h of contact) • myrtle extract control at the concentrations tested
(§9) For all the wells in contact with erythromycin, 1 ml of each dilution is filtered on a membrane (Microfil®, Millipore) and then the filter is rinsed three times with 50 ml of sterile distilled water. The membranes are deposited on Columbia agar+5% sheep blood. The plates are incubated at 37±2° C. under anaerobic conditions. After 72 h to 96 h of incubation, the colony forming units (CFUs) are counted.
(§10) For all the biofilm controls and the myrtle extract alone, 100 μl of each dilution is inoculated by streaking on Columbia agar+5% sheep blood. The plates are incubated at 37±2° C. under anaerobic conditions. After 72 h to 96 h of incubation, the CFUs are counted. Results
(§11) This test consisted in evaluating the activity of erythromycin (1000 μg/ml) combined with myrtle extract, at concentrations of 0.03%, 0.001% and 0.0001%.
(§12) The results are expressed in log of the population counted.

P. acnes B872 (eryS) = assay: as above; conditions: erythromycin 1000 μg/ml alone, 24 h contact on 48 h biofilm
Description: as §2, §3, §4, §5, §6, §1, §7, §8, §9, §10, §11, §12

[2] = test system: P. acnes CIP 110371 (eryR); assay: as above; conditions: erythromycin 1000 μg/ml alone, 24 h contact on 48 h biofilm, limit of detection 1.3 log
Description: as §2, §3, §4, §5, §6, §1, §7, §8, §9, §10, §11, §12

[3] = test system: P. acnes CIP 53117T (eryS); assay: as above; conditions: erythromycin 1000 μg/ml alone, 24 h contact on 48 h biofilm, limit of detection 1.3 log
Description: as §2, §3, §4, §5, §6, §1, §7, §8, §9, §10, §11, §12

[4] = test system: P. acnes eryS strains and eryR strains; assay: Erythromycin/myrtle extract on P. acnes biofilm, general conclusion over the strains
Description: as §3, §4, §5, §6, §7

Q: With `CC[C@H]1OC(=O)[C@H](C)[C@@H](O[C@H]2C[C@@](C)(OC)[C@@H](O)[C@H](C)O2)[C@H](C)[C@@H](O[C@@H]2O[C@H](C)C[C@H](N(C)C)[C@H]2O)[C@](C)(O)C[C@@H](C)C(=O)[C@H](C)[C@@H](O)[C@]1(C)O` [Ery, erythromycin] as the compound, how does the Bactericidal activity [1] read?
A: The Bactericidal activity was “did not have bactericidal activity”.

Q: What about the “Planktonic cells, Log (number of CFU/well)” value (P. acnes R4 (eryR); untreated control 3.7) of the same compound?
A: The value was 3.5 Log (number of CFU/well).

Q: And the “Adhered cells, Log (number of CFU/well)” value (P. acnes R4 (eryR); untreated control 4.5)?
A: The value was 3.5 Log (number of CFU/well).

Q: What about the “Planktonic cells, Log (number of CFU/well)” value (P. acnes B872 (eryS); untreated control 4.0) of the same compound?
A: The value was 1.3 Log (number of CFU/well).

Q: What about the “Adhered cells, Log (number of CFU/well)” value (P. acnes B872 (eryS); untreated control 4.4) of the same compound?
A: Its value is 4.0 Log (number of CFU/well).

Q: And the “Planktonic cells, Log (number of CFU/well)” value ([2]; untreated control 5.0)?
A: The value was 4.2 Log (number of CFU/well).

Q: What about the “Adhered cells, Log (number of CFU/well)” value ([2]; untreated control 5.3) of the same compound?
A: The value was 4.1 Log (number of CFU/well).

Q: What about the “Adhered cells, Log (number of CFU/well)” value ([3]; untreated control 5.1) of the same compound?
A: The value was 4.3 Log (number of CFU/well).

Q: What about the “Planktonic cells, Log (number of CFU/well)” value ([3]; untreated control 5.5) of the same compound?
A: Its value is 1.3 Log (number of CFU/well).

Q: What about the “Bactericidal activity of erythromycin alone” value [4] of the same compound?
A: Its value is “high”.
